Source: US9682938B2, “Pyrazolone derivatives as nitroxyl donors” (Cardioxyl Pharmaceuticals, Inc., priority 2014, dated 2017)

Columns and labels:
[1] = In vitro plasma stability, dog plasma; type: in vitro ADME; details: male, pH 7.4, 5 μM, 37° C., sampling 0-360 minutes, read-out: T1/2 Dog
How it was run: (§1)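 Pooled plasma at pH 7.4 with sodium heparin or citrate anticoagulant; compound at 5 μM, 37° C with shaking, triplicate samples at 0–360 min. Quenched in acetonitrile/1% formic acid with internal standard; LC-MS/MS peak-area ratios without standard curve; T1/2 from percent remaining.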

[2] = In vitro plasma stability, rat plasma; type: in vitro ADME; details: male, pH 7.4, 5 μM, 37° C., sampling 0-360 minutes, read-out: T1/2 Rat
How it was run: as §1

[3] = In vitro plasma stability, human plasma; type: in vitro ADME; details: male, pH 7.4, 5 μM, 37° C., sampling 0-360 minutes, read-out: T1/2 Human
How it was run: as §1

normal beagle dogs = experiment: Pharmacodynamic activity: systolic blood pressure decrease in telemetered dogs after oral dose; type: in vivo, dog; details: beagle dogs (n=3), single oral dose 30 mg/kg in PEG300, first 2 hr post-dose relative to baseline SBP
Experimental: The effect of certain compounds from Table 1 on blood pressure in freely moving telemetered normal beagle dogs (n=3) after single oral doses was evaluated. The animals were surgically implanted with a pressure transducer equipped telemetry transmitter. The transmitter assembly was secured internally and a fluid-filled catheter was placed into the abdominal aorta to allow for collection of cardiovascular data. To evaluate cardiovascular effects, 3 dogs were given single oral doses of a compound from Table 1 (100% PEG300 in gelatin capsules) at a concentration of 100 mg/mL and at doses of 30 mg/kg. Systemic blood pressure and heart rate were evaluated continuously for 2 hr before and for 24 hr after dosing (results not shown). To compare the pharmacodynamic activity for all tested compounds, the mean systolic blood pressure (SBP) decrease during the first 2 hr post-dose was determined relative to the baseline SBP (30-120 min pre-dose) (Table 6).

CN1N=C(c2ccc(C(F)(F)F)cc2)C(C)(NO)C1=O (stereo not shown) [Compound 4, 4-(hydroxyamino)-2,4-dimethyl-5-(4-(trifluoromethyl)phenyl)-2,4-dihydro-3H-pyrazol-3-one]
half-life at 5 μM [1]: 69 min | half-life at 5 μM [2]: 38 min | half-life at 5 μM [3]: 31 min | Mean SBP decrease (normal beagle dogs): 6 mmHg

CN1N=C(c2ccc(S(=O)(=O)C(F)(F)F)cc2)C(C)(NO)C1=O (stereo not shown) [Compound 34, 4-(hydroxyamino)-2,4-dimethyl-5-(4-((trifluoromethyl)sulfonyl)phenyl)-2,4-dihydro-3H-pyrazol-3-one]
half-life at 5 μM [1]: 25 min | half-life at 5 μM [2]: 28 min | half-life at 5 μM [3]: 36 min | Mean SBP decrease (normal beagle dogs): 18 mmHg

CN1N=C(c2ccc(S(C)(=O)=O)c(F)c2)C(C)(NO)C1=O (stereo not shown) [Compound 40, 5-(3-fluoro-4-(methylsulfonyl)phenyl)-4-(hydroxyamino)-2,4-dimethyl-2,4-dihydro-3H-pyrazol-3-one]
half-life at 5 μM [1]: 48 min | half-life at 5 μM [2]: 39 min | half-life at 5 μM [3]: 39 min | Mean SBP decrease (normal beagle dogs): 15 mmHg

CN1N=C(c2cccc(S(C)(=O)=O)c2)C(C)(NO)C1=O (stereo not shown) [Compound 48, 4-(hydroxyamino)-2,4-dimethyl-5-(3-(methylsulfonyl)phenyl)-2,4-dihydro-3H-pyrazol-3-one]
half-life at 5 μM [1]: 49 min | half-life at 5 μM [2]: 53 min | half-life at 5 μM [3]: 49 min | Mean SBP decrease (normal beagle dogs): 17 mmHg

C/C(=N\OCc1ccccc1)C1(NO)C(=O)N(C)N=C1C(C)(C)C (stereo not shown) [Compound 115, 4-[1-[(Benzyloxy)imino]ethyl]-3-tert-butyl-4-(hydroxyamino)-1-methyl-4,5-dihydro-1H-pyrazol-5-one]
half-life at 5 μM [1]: 27 min | half-life at 5 μM [2]: 32 min | half-life at 5 μM [3]: 14 min

CO/N=C(\C)C1(NO)C(=O)N(c2ccccc2)N=C1OC (stereo not shown) [Compound 116, 4-(Hydroxyamino)-3-methoxy-4-[1-(methoxyimino)ethyl]-1-phenyl-4,5-dihydro-1H-pyrazol-5-one]
half-life at 5 μM [1]: 18 min | half-life at 5 μM [2]: 48 min | half-life at 5 μM [3]: 9 min

C/C(=N\OC(C)(C)C)C1(NO)C(=O)N(C)N=C1C(C)(C)C (stereo not shown) [Compound 117, 4-[1-[(tert-Butoxy)imino]ethyl]-3-tert-butyl-4-(hydroxyamino)-1-methyl-4,5-dihydro-1H-pyrazol-5-one]
half-life at 5 μM [1]: 34 min | half-life at 5 μM [2]: 36 min | half-life at 5 μM [3]: 16 min

C/C(=N\Oc1ccc(Br)cc1)C1(NO)C(=O)N(C)N=C1C(C)(C)C (stereo not shown) [Compound 118, 4-[1-[(4-Bromophenoxy)imino]ethyl]-3-tert-butyl-4-(hydroxyamino)-1-methyl-4,5-dihydro-1H-pyrazol-5-one]
half-life at 5 μM [1]: 24 min | half-life at 5 μM [2]: 22 min | half-life at 5 μM [3]: 5 min

C/C(=N\Oc1ccccc1)C1(NO)C(=O)N(C)N=C1C(C)(C)C (stereo not shown) [Compound 119, 3-tert-Butyl-4-(hydroxyamino)-1-methyl-4-[1-(phenoxyimino)ethyl]-4,5-dihydro-1H-pyrazol-5-one]
half-life at 5 μM [1]: 118 min | half-life at 5 μM [2]: 91 min | half-life at 5 μM [3]: 12 min

CC(C)S(=N)(=O)c1ccc(C2=NN(C)C(=O)C2(C)NO)cc1 (stereo not shown) [Compound 120, 4-(Hydroxyamino)-3-{4-[imino(oxo)propan-2-yl-λ^6-sulfanyl]phenyl}-1,4-dimethyl-4,5-dihydro-1H-pyrazol-5-one]
half-life at 5 μM [1]: 31 min | half-life at 5 μM [2]: 56 min | half-life at 5 μM [3]: 32 min

CO/N=C(\C)C1(NO)C(=O)N(C)N=C1c1ccc(S(=O)(=O)N(C)C)cc1 (stereo not shown) [Compound 121, 4-[4-(Hydroxyamino)-4-[1-(methoxyimino)ethyl]-1-methyl-5-oxo-4,5-dihydro-1H-pyrazol-3-yl]-N,N-dimethylbenzene-1-sulfonamide]
half-life at 5 μM [1]: 4 min | half-life at 5 μM [2]: 8 min | half-life at 5 μM [3]: 2 min

CN1N=C(C(C)(C)C)C(NO)(c2ccc(S(=O)(=O)N(C)C)cc2)C1=O (stereo not shown) [Compound 122, 4-[3-tert-Butyl-4-(hydroxyamino)-1-methyl-5-oxo-4,5-dihydro-1H-pyrazol-4-yl]-N,N-dimethylbenzene-1-sulfonamide]
half-life at 5 μM [1]: 35 min | half-life at 5 μM [2]: 34 min | half-life at 5 μM [3]: 31 min

CO/N=C(\C)C1(NO)C(=O)N(C)N=C1c1ccc(C(=O)N(C)C)cc1 (stereo not shown) [Compound 123, 4-[4-(Hydroxyamino)-4-[1-(methoxyimino)ethyl]-1-methyl-5-oxo-4,5-dihydro-1H-pyrazol-3-yl]-N,N-dimethylbenzamide]
half-life at 5 μM [1]: 6 min | half-life at 5 μM [2]: 11 min | half-life at 5 μM [3]: 6 min

CN(C)C(=O)c1ccc(C2(NO)C(=O)N(C)N=C2C(C)(C)C)cc1 (stereo not shown) [Compound 124, 4-[3-tert-Butyl-4-(hydroxyamino)-1-methyl-5-oxo-4,5-dihydro-1H-pyrazol-4-yl]-N,N-dimethylbenzamide]
half-life at 5 μM [1]: 45 min | half-life at 5 μM [2]: 44 min | half-life at 5 μM [3]: 31 min

CCOC1=NN(C)C(=O)C1(NO)/C(C)=N/OCc1ccccc1 (stereo not shown) [Compound 125, 4-[1-[(Benzyloxy)imino]ethyl]-3-ethoxy-4-(hydroxyamino)-1-methyl-4,5-dihydro-1H-pyrazol-5-one]
half-life at 5 μM [1]: 13 min | half-life at 5 μM [2]: 15 min | half-life at 5 μM [3]: 10 min

CCOC1=NN(C)C(=O)C1(NO)/C(C)=N/OC (stereo not shown) [Compound 126, 3-Ethoxy-4-(hydroxyamino)-4-[1-(methoxyimino)ethyl]-1-methyl-4,5-dihydro-1H-pyrazol-5-one]
half-life at 5 μM [1]: 30 min | half-life at 5 μM [2]: 18 min | half-life at 5 μM [3]: 18 min

CCOC1=NN(c2ccccc2)C(=O)C1(C)NO (stereo not shown) [Compound 127, 3-Ethoxy-4-(hydroxyamino)-4-methyl-1-phenyl-4,5-dihydro-1H-pyrazol-5-one]
half-life at 5 μM [1]: > 480 min | half-life at 5 μM [2]: > 480 min | half-life at 5 μM [3]: > 480 min

CO/N=C(\C)C1(NO)C(=O)N(c2ccccc2)N=C1[S+]([O-])c1ccccc1 (stereo not shown) [Compound 130, 3-(Benzenesulfinyl)-4-(hydroxyamino)4[1-(methoxyimino)ethyl]-1-phenyl-4,5-dihydro1H-pyrazol-5-one]
half-life at 5 μM [1]: < 1 min | half-life at 5 μM [2]: < 1 min | half-life at 5 μM [3]: < 1 min

CO/N=C(\C)C1(NO)C(=O)NN=C1C(C)(C)C (stereo not shown) [Compound 131, 3-tert-Butyl-4-(hydroxyamino)-4-[1-(methoxyimino)ethyl]-4,5-dihydro-1H-pyrazol-5-one]
half-life at 5 μM [1]: 7 min | half-life at 5 μM [2]: 24 min | half-life at 5 μM [3]: 15 min

CC1=NN(C)C(=O)C1(NO)c1noc(-c2ccccc2)n1 (stereo not shown) [Compound 132, 4-(Hydroxyamino)-1,3-dimethyl-4-(5-phenyl-1,2,4-oxadiazol-3-yl)-4,5-dihydro-1H-pyrazol-5-one]
half-life at 5 μM [1]: < 1 min | half-life at 5 μM [2]: < 1 min | half-life at 5 μM [3]: < 1 min

CC1(NO)C(=O)NN=C1c1ccc(S(C)(=O)=O)cc1 (stereo not shown) [Compound 133, 4-(Hydroxyamino)-3-(4-methanesulfonylphenyl)-4-methyl-4,5-dihydro-1H-pyrazol-5-one]
half-life at 5 μM [1]: 126 min | half-life at 5 μM [2]: 116 min | half-life at 5 μM [3]: 110 min

CCO/N=C(\C)C1(NO)C(=O)NN=C1C(C)(C)C (stereo not shown) [Compound 134, 3-tert-Butyl-4-[1-(ethoxyimino)ethyl]-4-(hydroxyamino)-4,5-dihydro-1H-pyrazol-5-one]
half-life at 5 μM [1]: 26 min | half-life at 5 μM [2]: 20 min | half-life at 5 μM [3]: 17 min
